Patent US12319664B2, “Herbicidally active 3-phenylisoxazoline-5-carboxamides of cyclopentenylcarboxylic acid derivatives” (Bayer Aktiengesellschaft, priority 2018, dated 2025)

Key:
AVEFA = assay: Post-emergence herbicidal action against AVEFA; format: in vivo, Avena fatua; settings: application rate 80 g/ha, rated visually after about 3 weeks
Procedure: (§1) [table] 2. Post-emergence herbicidal action against harmful plants and crop plant compatibility Seeds of monocotyledonous and dicotyledonous weeds and crop plants are placed in sandy loam in plastic or wood-fibre pots, covered with soil and cultivated in a greenhouse under controlled growth conditions. 2 to 3 weeks after sowing, the test plants are treated at the one-leaf stage. The compounds of the invention, formulated in the form of wettable powders (WP) or as emulsion concentrates (EC), are then sprayed onto the green parts of the plants as aqueous suspension or emulsion with addition of 0.5% additive at a water application rate of 600 l/ha (converted). After the test plants have been kept in the greenhouse under optimum growth conditions for about 3 weeks, the activity of the preparations is rated visually in comparison to untreated controls. For example, 100% activity=the plants have died, 0% activity=like control plants.

ECHCG = assay: Post-emergence herbicidal action against ECHCG; format: in vivo, Echinochloa crus-galli; settings: application rate 80 g/ha, rated visually after about 3 weeks
Procedure: as §1

ABUTH = assay: Post-emergence herbicidal action against ABUTH; format: in vivo, Abutilon theophrasti; settings: application rate 80 g/ha, rated visually about 3 weeks after treatment
Procedure: as §1

AMARE = assay: Post-emergence herbicidal action against AMARE; format: in vivo, Amaranthus retroflexus; settings: application rate 80 g/ha, rated visually about 3 weeks after treatment
Procedure: as §1

PHBPU = assay: Post-emergence herbicidal action against PHBPU; format: in vivo, Pharbitis purpurea; settings: application rate 80 g/ha, rated visually about 3 weeks after treatment
Procedure: as §1

HORMU = assay: Post-emergence herbicidal action against HORMU; format: in vivo, Hordeum murinum; settings: application rate 80 g/ha
Procedure: as §1

ALOMY = assay: Post-emergence herbicidal action against ALOMY; format: in vivo, Alopecurus myosuroides; settings: application rate 80 g/ha, rated visually after about 3 weeks
Procedure: as §1

LOLRI = assay: Post-emergence herbicidal action against LOLRI; format: in vivo, Lolium rigidum; settings: application rate 80 g/ha, rated visually after about 3 weeks
Procedure: as §1

SETVI = assay: Post-emergence herbicidal action against SETVI; format: in vivo, Setaria viridis; settings: application rate 80 g/ha, rated visually after about 3 weeks
Procedure: as §1

STEME = assay: Post-emergence herbicidal action against STEME; format: in vivo, Stellaria media; settings: application rate 80 g/ha, rated visually about 3 weeks after treatment
Procedure: as §1

VERPE = assay: Post-emergence herbicidal action against VERPE; format: in vivo, Veronica persica; settings: application rate 80 g/ha
Procedure: as §1

POLCO = assay: Post-emergence herbicidal action against POLCO; format: in vivo, Polygonum convolvulus; settings: application rate 80 g/ha, rated visually about 3 weeks after treatment
Procedure: as §1

| SMILES | Herbicidal action against [%] AVEFA (AVEFA) [%] | Herbicidal action against [%] ECHCG (ECHCG) [%] | Herbicidal action against [%] ABUTH (ABUTH) [%] | Herbicidal action against [%] AMARE (AMARE) [%] | Herbicidal action against [%] PHBPU (PHBPU) [%] | Herbicidal action against [%] HORMU (HORMU) [%] | Herbicidal action against [%] ALOMY (ALOMY) [%] | Herbicidal action against [%] LOLRI (LOLRI) [%] | Herbicidal action against [%] SETVI (SETVI) [%] | Herbicidal action against [%] STEME (STEME) [%] | Herbicidal action against [%] VERPE (VERPE) [%] | Herbicidal action against [%] POLCO (POLCO) [%] |
| --- | --- | --- | --- | --- | --- | --- | --- | --- | --- | --- | --- | --- |
| COc1cc(OC)cc(C2=NOC(C(=O)NC3C=CC(C(=O)OCCCl)C3)(C(F)(F)F)C2)c1 (mixture of isomers) [Example I-044] | 80 | 90 | 90 | 80 | 80 | 100 | – | – | – | – | – | – |
| O=C(OCCCl)C1C=CC(NC(=O)C2(C(F)(F)F)CC(c3cccc(Cl)c3)=NO2)C1 (mixture of isomers) [Example I-045] | 90 | 80 | 80 | – | 80 | 90 | 100 | 80 | 80 | 80 | – | – |
| Cc1cc(C2=NOC(C(=O)NC3C=CC(C(=O)OCCCl)C3)(C(F)(F)F)C2)cc(C(F)(F)F)c1 (mixture of isomers) [Example I-049] | 90 | – | – | 90 | 90 | 90 | 90 | 90 | – | – | 80 | – |
| O=C(OCC(F)(F)F)C1C=CC(NC(=O)C2(C(F)(F)F)CC(c3cccc(Cl)c3)=NO2)C1 (mixture of isomers) [Example I-051] | 90 | 80 | 80 | – | 80 | 90 | 100 | 90 | – | 90 | 80 | – |
| CC1(C(=O)NC2C=CC(C(=O)O)C2)CC(c2cccc(C#N)c2)=NO1 (mixture of isomers) [Example I-070] | 100 | 90 | 80 | 90 | 80 | 90 | 90 | 80 | 90 | 80 | 80 | 90 |
| CCOC(=O)C1C=CC(NC(=O)C2(C)CC(c3cc(F)cc(C#N)c3)=NO2)C1 (mixture of isomers) [Example I-073] | 100 | 100 | 80 | 80 | 80 | 90 | 90 | 100 | 80 | 90 | 80 | 90 |
| COCCOC(=O)C1C=CC(NC(=O)C2(C(F)(F)F)CC(c3cccc(C#N)c3)=NO2)C1 (mixture of isomers) [Example I-086] | 90 | 90 | 90 | 90 | 80 | 100 | 90 | 90 | 90 | 80 | 90 | 80 |
| CC1(C(=O)NC2C=CC(C(=O)NC(C)(C)C(F)(F)F)C2)CC(c2cc(F)cc(F)c2)=NO1 (mixture of isomers) [II-08] | – | – | – | – | 90 | – | 80 | – | – | 90 | 80 | – |
| C=CC1(C(=O)NC2C=CC(C(=O)NS(=O)(=O)CC(=O)OC)C2)CC(c2cc(F)cc(F)c2)=NO1 (mixture of isomers) [II-18] | 100 | 80 | – | 80 | 80 | 90 | 100 | 80 | 90 | 80 | 80 | – |
| O=C(C1C=CC(NC(=O)C2(C(F)(F)F)CC(c3cc(F)cc(F)c3)=NO2)C1)N1CCCO1 (mixture of isomers) [II-32] | 90 | 90 | 80 | 80 | – | 90 | 90 | 90 | 80 | 90 | 80 | 90 |
| C=CC1(C(=O)NC2CC=C(C(=O)NS(N)(=O)=O)C2)CC(c2cc(F)cc(F)c2)=NO1 (mixture of isomers) [IV-10] | 90 | 90 | – | 80 | 90 | 90 | – | 90 | – | – | – | – |
| C=CC1(C(=O)NC2C=CC(C(=O)NC(C)(C)C(F)(F)F)C2)CC(c2cc(F)cc(F)c2)=NO1 (single isomer, unassigned) [II-24] | – | – | – | – | 80 | – | – | – | – | – | 80 | – |
| CC(C)(C)OC(=O)[C@@H]1C=C[C@H](NC(=O)C2(C)CC(c3cc(F)cc(F)c3)=NO2)C1 (stereo partly shown) [Example I-007] | 90 | 90 | 80 | – | 90 | 90 | 90 | 90 | 90 | 90 | 90 | 80 |
| COC(=O)[C@@H]1C=C[C@H](NC(=O)C2(C(F)(F)F)CC(c3ccccc3)=NO2)C1 (stereo partly shown) [Example I-026] | 100 | 80 | – | 90 | 80 | 90 | 100 | 90 | 90 | 80 | 80 | 80 |
| O=C(OCC(F)(F)F)[C@@H]1C=C[C@H](NC(=O)C2(C(F)(F)F)CC(c3ccccc3)=NO2)C1 (stereo partly shown) [Example I-030] | 100 | 80 | – | 90 | 80 | 90 | 90 | 100 | 90 | – | 80 | 90 |
| C=C[C@]1(C(=O)N[C@H]2C=C[C@H](C(=O)OC)C2)CC(c2cc(F)cc(F)c2)=NO1 [Example I-054] | 100 | 90 | – | 80 | 80 | 90 | 90 | 100 | 80 | 80 | 90 | 80 |
| CC(C)(C)OC(=O)[C@@H]1C=C[C@H](NC(=O)C2(C)CC(c3cccc(C#N)c3)=NO2)C1 (stereo partly shown) [Example I-095] | – | – | – | – | 90 | – | 90 | – | – | – | 80 | 90 |
| C=CC1(C(=O)N[C@H]2C=C[C@H](C(=O)NC(C)(C)C#N)C2)CC(c2cc(F)cc(F)c2)=NO1 (stereo partly shown) [II-19] | – | – | – | – | 90 | – | – | – | – | – | – | – |
